Reference: the supplement of paper PMC11451515

Assays:
Settings in all cases: 48 h
[1] = test system: NOMO1; experiment: cell viability relative to DMSO control; higher = less cytotoxic
In short: (§1)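 NOMO1, SEM and P12-Ichikawa leukemia cells spent at least four passages adapting to each medium before use. They were seeded at 500 cells/well (NOMO1, SEM) or 1000 cells/well (P12-Ichikawa) in 5 μl in 1536-well plates and pin-dosed with library compounds in DMSO at 11 threefold steps from 47 μM down to 0.79 nM. After 48 h at 37°C, CellTiter-Glo One luminescence was read. Viability is reported as a percentage of the DMSO wells on each plate, with cell-free wells as background.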

[2] = test system: P12-Ichikawa; experiment: as above
In short: as §1

[3] = test system: SEM cells; experiment: as above
In short: as §1

[4] = test system: NOMO1; experiment: AUC of viability dose-response curve (% viability x log10 dose units); higher = less sensitive
In short: (§2)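 Leukemia cells adapted to each medium were seeded at 500 or 1000 cells/well in 1536-well plates and dosed with library compounds in DMSO at 11 threefold doses from 47 μM to 0.79 nM for 48 h at 37°C. CellTiter-Glo One luminescence was normalised per plate to DMSO and cell-free wells, then fitted with a four-parameter log-logistic model over log10 doses. Area under the curve was taken from this fit by the trapezoidal rule, with curves above full viability scaled and curves failing quality control removed.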

[5] = test system: P12-Ichikawa; experiment: as above
In short: as §2

[6] = test system: SEM cells; experiment: as above
In short: as §2

COc1cccc2c1[C@]13CCN(CC4CC4)[C@H](C2)[C@]1(OC)CCC(=O)C3
cell viability [%]
Settings | [1] | [2] | [3]
HPLM + 10% dialyzed FBS, 0.000781 µM | 89.7 | 99.7 | 71.3
HPLM + 10% dialyzed FBS, 0.00234 µM | 96.5 | 120 | 90.6
HPLM + 10% dialyzed FBS, 0.00702 µM | 127 | 66.7 | 20
HPLM + 10% dialyzed FBS, 0.0211 µM | 121 | 124 | 108
HPLM + 10% dialyzed FBS, 0.0632 µM | 118 | 125 | 106
HPLM + 10% dialyzed FBS, 0.19 µM | 119 | 122 | 105
HPLM + 10% dialyzed FBS, 0.569 µM | 116 | 121 | 107
HPLM + 10% dialyzed FBS, 1.71 µM | 129 | 121 | 109
HPLM + 10% dialyzed FBS, 5.12 µM | 122 | 127 | 116
HPLM + 10% dialyzed FBS, 15.4 µM | 82.2 | 116 | 120
HPLM + 10% dialyzed FBS, 46.1 µM | 111 | 119 | 111
RPMI 5 mM glucose + 10% FBS, 0.000781 µM | 101 | 94.6 | 89.4
RPMI 5 mM glucose + 10% FBS, 0.00234 µM | 111 | 113 | 123
RPMI 5 mM glucose + 10% FBS, 0.00702 µM | 103 | 56.9 | 8.7
RPMI 5 mM glucose + 10% FBS, 0.0211 µM | 124 | 110 | 113
RPMI 5 mM glucose + 10% FBS, 0.0632 µM | 126 | 136 | 116
RPMI 5 mM glucose + 10% FBS, 0.19 µM | 117 | 129 | 107
RPMI 5 mM glucose + 10% FBS, 0.569 µM | 132 | 127 | 97
RPMI 5 mM glucose + 10% FBS, 1.71 µM | 125 | 121 | 113
RPMI 5 mM glucose + 10% FBS, 5.12 µM | 133 | 123 | 122
RPMI 5 mM glucose + 10% FBS, 15.4 µM | 110 | 117 | 98.4
RPMI 5 mM glucose + 10% FBS, 46.1 µM | 124 | 123 | 110
RPMI 5 mM glucose + 10% dialyzed FBS, 0.000781 µM | 106 | 92.9 | 81.2
RPMI 5 mM glucose + 10% dialyzed FBS, 0.00234 µM | 108 | 120 | 108
RPMI 5 mM glucose + 10% dialyzed FBS, 0.00702 µM | 106 | 68.7 | 18.8
RPMI 5 mM glucose + 10% dialyzed FBS, 0.0211 µM | 111 | 120 | 99.8
RPMI 5 mM glucose + 10% dialyzed FBS, 0.0632 µM | 110 | 123 | 105
RPMI 5 mM glucose + 10% dialyzed FBS, 0.19 µM | 116 | 127 | 106
RPMI 5 mM glucose + 10% dialyzed FBS, 0.569 µM | 109 | 133 | 84.6
RPMI 5 mM glucose + 10% dialyzed FBS, 1.71 µM | 111 | 118 | 97.4
RPMI 5 mM glucose + 10% dialyzed FBS, 5.12 µM | 105 | 122 | 93.3
RPMI 5 mM glucose + 10% dialyzed FBS, 15.4 µM | 106 | 127 | 95.6
RPMI 5 mM glucose + 10% dialyzed FBS, 46.1 µM | 105 | 116 | 80.7

AUC of viability dose-response curve
Settings | [4] | [5] | [6]
HPLM + 10% dialyzed FBS | 469 | 451 | 422
RPMI 5 mM glucose + 10% FBS | 459 | 436 | 416
RPMI 5 mM glucose + 10% dialyzed FBS | 473 | 446 | 421
